Assay results as given in EP4806898A1, “HETEROARYL DERIVATIVE COMPOUND AND USE THEREOF” (Voronoi Inc., priority 2023, dated 2025).

Columns and labels:
recombinant USP1 protein = biological target: T1, recombinant USP1 protein (Homo sapiens, UniProt O94782, DEL125-138/DEL229-408/DEL608-737); test: Binding affinity to recombinant USP1 protein by differential scanning fluorimetry; settings: compound 100 µM; 0.03 mg/mL USP1 (Δ1-66, Δ125-138, Δ229-408, Δ608-737); Tm with compound minus Tm with DMSO; read-out: ΔTm (°C)
T1 sequence (O94782 with tags, fused parts or gaps DEL125-138/DEL229-408/DEL608-737): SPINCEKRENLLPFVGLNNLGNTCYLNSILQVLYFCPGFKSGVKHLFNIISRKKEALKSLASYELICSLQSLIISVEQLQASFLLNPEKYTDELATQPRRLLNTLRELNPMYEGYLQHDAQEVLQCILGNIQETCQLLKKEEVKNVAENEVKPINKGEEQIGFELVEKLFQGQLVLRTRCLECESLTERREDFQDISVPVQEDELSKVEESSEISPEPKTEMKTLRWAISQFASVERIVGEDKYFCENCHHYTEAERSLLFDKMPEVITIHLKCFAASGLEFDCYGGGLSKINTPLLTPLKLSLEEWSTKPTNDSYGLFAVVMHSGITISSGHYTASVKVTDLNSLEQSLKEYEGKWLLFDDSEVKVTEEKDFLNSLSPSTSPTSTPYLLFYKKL
Procedure, shortened: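 USP1 (Δ1-66, Δ125-138, Δ229-408, Δ608-737) at 0.03 mg/mL with dye in 50 mM Tris-HCl pH 8.0, 150 mM NaCl, 2% glycerol, 1 mM DTT; compounds at 100 µM final. Tm read on real-time PCR instrument; ΔTm = Tm with compound minus Tm with DMSO.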

UWB1.289 cells = test: Cell proliferation inhibitory activity in BRCA1/2-mutant or HRD-positive cells (Cell Titer-Glo); format: cell-based; settings: UWB1289; UWB1.289 cells, 144 hours after compound treatment, Cell Titer-Glo, 1.5 nM to 10 µM; read-out: GI50 UWB1.289 BRCA1 mut
Procedure, shortened: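 UWB1.289 cells (1,000/well) in 50% MEBM/50% RPMI1640 exposed to […], final 1.5 nM to 10 µM, for 144 h at 37 °C. Viable cells measured by CellTiter-Glo luminescence; GI50 calculated.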

| ΔTm at 100 µM (recombinant USP1 protein) | SMILES | GI50 (UWB1.289 cells) |
| --- | --- | --- |
| > 5 °C | COc1ncnc(C2CC2)c1-c1ncc2cc(C(=O)N[C@@H]3CN(C)C[C@H]3F)n(Cc3ccc(-c4nc(C(F)(F)F)cn4C)cc3)c2n1 [Example 218, 2-(4-cyclopropyl-6-methoxypyrimidin-5-yl) -N-((3R,4R)-4-fluoro-1-methylpyrrolidin-3-yl)-7-(4-(1-methyl-4-(trifluoromethyl)-1H-imidazol-2-yl)benzyl)-7H-pyrrolo[2,3-d]pyrimidine-6-carboxamide] | < 100 nM |
| > 5 °C | COc1ncnc(C2CC2)c1-c1ncc2cc(C(=O)N[C@@H]3CCN(C)C[C@@H]3F)n(Cc3ccc(-c4nc(C(F)(F)F)cn4C(C)C)cc3)c2n1 [Example 219, 2-(4-cyclopropyl-6-methoxypyrimidin-5-yl)-N-((3S,4R)-3-fluoro-1-methylpiperidin-4-yl)-7-(4-(1-isopropyl-4-(trifluoromethyl)-1H-imidazol-2-yl)benzyl)-7H-pyrrolo[2,3-d]pyrimidine-6-carboxamide] | < 100 nM |
| > 5 °C | COc1ncnc(C2CC2)c1-c1ncc2cc(C(=O)N[C@H]3CN(C)C[C@H]3F)n(Cc3ccc(-c4nc(C(F)(F)F)cn4C(C)C)cc3)c2n1 [Example 220, 2-(4-cyclopropyl-6-methoxypyrimidin-5-yl)-N-((3S,4R)-4-fluoro-1-methylpyrrolidin-3-yl)-7-(4-(1-isopropyl-4-(trifluoromethyl)-1H-imidazol-2-yl)benzyl)-7H-pyrrolo[2,3-d]pyrimidine-6-carboxamide] | < 100 nM |
| > 5 °C | COc1ncnc(C2CC2)c1-c1ncc2cc(C(=O)N[C@@H]3CCN(C(C)C)C[C@@H]3F)n(Cc3ccc(-c4nc(C(F)(F)F)cn4C)cc3)c2n1 [Example 221, 2-(4-cyclopropyl-6-methoxypyrimidin-5-yl)-N-((3S,4R)-3-fluoro-1-isopropylpiperidin-4-yl)-7-(4-(1-methyl-4-(trifluoromethyl)-1H-imidazol-2-yl)benzyl)-7H-pyrrolo[2,3-d]pyrimidine-6-carboxamide] | < 100 nM |
